Test results as given in patent publication US10905679B2, “TRPM8 receptor agonist compounds and uses thereof” (UNIVERSIDAD MIGUEL HERNANDEZ DE ELCHE, priority 2016, dated 2021).

Test system: guinea pig
Assay: In vivo tear secretion measured using phenol red threads after ocular instillation
Conditions: instilled ocularly at 200 μM, phenol red thread 30 seconds
Text: The in vivo activity of the selected TRPM8 activating compounds (TZM-7) has been assessed in an animal model following the protocol described in Acosta M C et al., Invest Ophthalmol Vis Sci 2014 (Corneal sensory nerve activity in an experimental model of UV keratitis. Acosta M et al., Invest Ophthalmol Vis Sci May 1; 55(6):3403-12). […] Tear secretion can be measured using phenol red threads (Zone-Quick, Menicon, Nagoya, Japan) that are applied to the nasal edge of the lower eyelid for 30 seconds (after that time, the distance of the red-dyed thread is measured in mm).

| SMILES | tear secretion |
| --- | --- |
| CC1CCC(C(C)C)C(O)C1 (stereo not shown) [Menthol, reference compound] | produces an increase in tear secretion |

Biological target: T1, TRPM8 (Homo sapiens, UniProt Q7Z2W7)
T1 construct: expressed in transfected cells
T1 sequence (Q7Z2W7 whole entry): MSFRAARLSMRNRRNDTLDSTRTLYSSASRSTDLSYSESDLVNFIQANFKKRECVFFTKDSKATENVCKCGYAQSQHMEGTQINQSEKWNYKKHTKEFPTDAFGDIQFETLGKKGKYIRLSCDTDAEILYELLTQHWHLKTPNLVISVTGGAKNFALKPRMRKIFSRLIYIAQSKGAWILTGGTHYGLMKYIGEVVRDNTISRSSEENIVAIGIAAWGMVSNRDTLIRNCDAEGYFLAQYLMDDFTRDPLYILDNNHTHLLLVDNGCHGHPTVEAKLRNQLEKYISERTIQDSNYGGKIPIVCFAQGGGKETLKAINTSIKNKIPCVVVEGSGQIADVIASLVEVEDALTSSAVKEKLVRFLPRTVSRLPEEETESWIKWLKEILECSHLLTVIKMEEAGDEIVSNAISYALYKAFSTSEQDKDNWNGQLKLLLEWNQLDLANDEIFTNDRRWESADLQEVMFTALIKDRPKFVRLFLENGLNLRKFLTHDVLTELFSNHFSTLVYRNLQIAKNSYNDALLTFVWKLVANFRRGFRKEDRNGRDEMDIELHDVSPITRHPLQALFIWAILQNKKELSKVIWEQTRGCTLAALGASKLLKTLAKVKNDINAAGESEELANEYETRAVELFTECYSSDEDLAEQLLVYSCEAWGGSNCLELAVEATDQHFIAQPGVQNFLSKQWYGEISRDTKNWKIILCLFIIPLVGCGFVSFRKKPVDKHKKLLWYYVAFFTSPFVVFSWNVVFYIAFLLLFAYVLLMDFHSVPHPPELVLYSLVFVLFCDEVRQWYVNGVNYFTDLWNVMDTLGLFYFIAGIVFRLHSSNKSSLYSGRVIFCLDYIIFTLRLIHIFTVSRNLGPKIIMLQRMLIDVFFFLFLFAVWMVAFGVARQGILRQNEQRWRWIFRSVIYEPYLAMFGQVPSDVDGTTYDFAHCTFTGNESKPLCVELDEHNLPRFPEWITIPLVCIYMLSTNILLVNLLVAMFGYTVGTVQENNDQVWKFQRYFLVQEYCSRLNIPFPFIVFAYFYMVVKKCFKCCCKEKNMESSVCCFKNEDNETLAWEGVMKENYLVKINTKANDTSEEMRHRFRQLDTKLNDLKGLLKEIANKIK
Assay: Ca2+ fluorimetry assay in CHO cell line stably expressing TRPM8
Assay type: cell-based
Conditions: 10 μM; CHO cells stably expressing TRPM8; Fluo-4NW fluorescence
Method: The cells were cultured in monolayer in EMEM medium (Earle's minimum essential medium with Earle's salts, Invitrogen) supplemented with 10% foetal bovine serum (FBS), 2 mM L-glutamine, 1% penicillin-streptomycin solution and […] of the Geneticin antibiotic (Sigma) and kept at 37° C. in a humidified atmosphere with 5% of CO2. Ca^2+ fluorimetry assays were carried out in order to determine the efficacy of the compounds on the TRPM8 channels. The cells were seeded in 96-well plates with a density of 25,000 cells per well. Three days after seeding, the medium was removed and 100 μl of the Fluo-4NW fluorescent probe from Invitrogen was added with a concentration of 5 μM in the presence of 0.02% pluronic acid; after 60 minutes of incubation at 37° C. in a humidified atmosphere with 5% of CO2, the fluorescence was measured in a microplate reader (POLARstar Omega) with a configuration of 485 nm for the excitation and 520 nm for the emission, during 20 cycles. […] In the wells that were used as negative controls, 1 μl of AMTB [N-(3-aminopropyl)-2-[(3-methylphenyl)methoxy]-N-(2-thienylmethyl)benzamide] was added to obtain a final concentration of 10 μM, to block the TRPM8 channels.
The amplitudes of the Ca^2+ increases, caused by the stimulation of the cells with the compounds, were measured by subtracting the basal fluorescence signal (mean intensity obtained before adding the compound) from the fluorescence peak obtained after applying the compounds. The obtained results were adjusted to a sigmoid function using the software suite of the GraphPad Prism computer program.

| activation at 10 µM [%] | SMILES |
| --- | --- |
| 45.5 ± 11.2 | CC(C)[C@@H]1CC[C@@H](C)C[C@H]1n1cc(CO)nn1 [TZM-1] |
| 54 ± 14.4 | CC1CC[C@@H](C(C)C)[C@H](n2cc(CCCCCCCCC(=O)O)nn2)C1 (stereo in doubt) [TZM-21, 9-(1-((1R,2S,5S)-2-isopropyl-5-methylcyclohexyl)-1H-1,2,3-triazole-4-yl)-nonanoic acid] |
| 45.1 ± 18.6 | COCc1cn([C@@H]2C[C@H](C)CC[C@H]2C(C)C)nn1 [TZM-25, 1-((1R,2S,5R)-2-isopropyl-5-methylcyclohexyl)-4-(methoxymethyl)-1H-1,2,3-triazole] |
| 45 ± 23.4 | CC(C)[C@@H]1CC[C@@H](C)C[C@H]1n1cc(CCc2ccccc2)nn1 [TZM-10, 1-((1R,2S,5R)-2-isopropyl-5-methylcyclohexyl)-4-phenethyl-1H-1,2,3-triazole] |
| 85.1 ± 33 | COc1ccc(-c2cn([C@@H]3C[C@H](C)CC[C@H]3C(C)C)nn2)cc1 [TZM-4, 1-((1R,2S,5R)-2-isopropyl-5-methylcyclohexyl)-4-(4-methoxyphenyl)-1H-1,2,3-triazole] |
| 51.2 ± 16.1 | CC(C)[C@@H]1CC[C@@H](C)C[C@H]1n1cc(-c2cccc(O)c2)nn1 [TZM-23, 3-[1-((1R,2S,5R)-2-isopropyl-5-methylcyclohexyl)-1H-1,2,3-triazole-4-yl]phenol] |
| 59.1 ± 30.4 | CC(C)[C@@H]1CC[C@@H](C)C[C@H]1n1cc(-c2ccccn2)nn1 [TZM-9, 2-(1-((1R,2S,5R)-2-isopropyl-5-methylcyclohexyl)-1H-1,2,3-triazole-4-yl)pyridine] |
| 37.8 ± 5.49 | COc1cccc(-c2cn([C@@H]3C[C@H](C)CC[C@H]3C(C)C)nn2)c1 [TZM-24, 1-((1R,2S,5R)-2-isopropyl-5-methylcyclohexyl)-4-(3-methoxyphenyl)-1H-1,2,3-triazole] |
| 42 ± 4.53 | CC(C)[C@@H]1CC[C@@H](C)C[C@H]1n1cc(C(=O)c2ccc(-c3ccccc3)cc2)nn1 [TZM-17, [1,1′-biphenyl]-4-yl(1-((1R,2S,5R)-2-isopropyl-5-methylcyclohexyl)-1H-1,2,3-triazole-4-yl)methanone] |
| 46.5 ± 6.57 | CC(C)[C@@H]1CC[C@@H](C)C[C@H]1n1cc(C(=O)c2ccc(Oc3ccccc3)cc2)nn1 [TZM-13, (1-((1R,2S,5R)-2-isopropyl-5-methylcyclohexyl)-1H-1,2,3-triazole-4-yl) (4-phenoxyphenyl)methanone] |
| 45.1 ± 16.9 | CC(C)[C@@H]1CC[C@@H](C)C[C@H]1n1cc(C2(O)CCCCC2)nn1 [TZM-6, 1-(1-((1R,2S,5R)-2-isopropyl-5-methylcyclohexyl)-1H-1,2,3-triazole-4-yl)cyclohexan-1-ol] |
| 50.1 ± 8.25 | CC(C)[C@@H]1CC[C@@H](C)C[C@H]1n1cc(-c2ccc(-c3ccccc3)cc2)nn1 [TZM-5, 4-([1,1′-biphenyl]-4-yl)-1-((1R,2S,5R)-2-isopropyl-5-methylcyclohexyl)-1H-1,2,3-triazole] |
| 55.6 ± 26.2 | CC(C)[C@@H]1CC[C@@H](C)C[C@H]1n1cc(-c2ccc(Oc3ccccc3)cc2)nn1 [TZM-2, 1-((1R,2S,5R)-2-isopropyl-5-methylcyclohexyl)-4-(4-phenoxyphenyl)-1H-1,2,3-triazole] |
| 50.9 ± 17.2 | COc1ccc(C(O)c2cn([C@@H]3C[C@H](C)CC[C@H]3C(C)C)nn2)cc1OC (stereo partly drawn) [TZM-26, (3,4-dimethoxyphenyl) (1-((1R,2S,5R)-2-isopropyl-5-methylcyclohexyl)-1H-1,2,3-triazole-4-yl)methanol] |
| 51.6 ± 14 | CC(C)[C@@H]1CC[C@@H](C)C[C@H]1n1cc(-c2ccccc2)nn1 [TZM-3, 1-((1R,2S,5R)-2-isopropyl-5-methylcyclohexyl)-4-phenyl-1H-1,2,3-triazole] |
| 56.5 ± 29.7 | CC(C)[C@@H]1CC[C@@H](C)C[C@H]1n1cc(-c2cccc3ccccc23)nn1 [TZM-8, 1-((1R,2S,5R)-2-isopropyl-5-methylcyclohexyl)-4-(naphthalene-1-yl)-1H-1,2,3-triazole] |
| 57.3 ± 15.2 | CC1CC[C@@H](C(C)C)[C@H](n2cc(CCCCC#N)nn2)C1 (stereo in doubt) [TZM-22, 5-(1-((1R,2S,5S)-2-isopropyl-5-methylcyclohexyl)-1H-1,2,3-triazole-4-yl)pentanenitrile] |

| SMILES | activation at 10 µM [%] |
| --- | --- |
| COc1cc(OC)cc(C(=O)c2cn([C@@H]3C[C@H](C)CC[C@H]3C(C)C)nn2)c1 [TZM-16, (3,5-dimethoxyphenyl) (1-((1R,2S,5R)-2-isopropyl-5-methylcyclohexyl)-1H-1,2,3-triazole-4-yl)methanone] | 44.5 ± 5.59 |
| COc1ccc(C(=O)c2cn([C@@H]3C[C@H](C)CC[C@H]3C(C)C)nn2)cc1OC [TZM-11, (3,4-dimethoxyphenyl) (1-((1R,2S,5R)-2-isopropyl-5-methylcyclohexyl)-1H-1,2,3-triazole-4-yl)methanone] | 53.5 ± 13.4 |
| CC(C)[C@@H]1CC[C@@H](C)C[C@H]1n1cc(C(=O)c2ccc(Cl)cc2)nn1 [TZM-20, (4-chlorophenyl) (1-((1R,2S,5R)-2-isopropyl-5-methylcyclohexyl)-1H-1,2,3-triazole-4-yl)methanone] | 66.9 ± 17.5 |
| COc1ccc(C(=O)c2cn([C@@H]3C[C@H](C)CC[C@H]3C(C)C)nn2)cc1 [TZM-18, (1-((1R,2S,5R)-2-isopropyl-5-methylcyclohexyl)-1H-1,2,3-triazole-4-yl) (4-methoxyphenyl)methanone] | 44.6 ± 5.62 |
| COc1ccccc1C(=O)c1cn([C@@H]2C[C@H](C)CC[C@H]2C(C)C)nn1 [TZM-15, (1-((1R,2S,5R)-2-isopropyl-5-methylcyclohexyl)-1H-1,2,3-triazole-4-yl) (2-methoxyphenyl)methanone] | 50.5 ± 4.83 |
| CC1CCC(C(C)C)C(O)C1 (stereo not shown) [Menthol, reference compound] | 101 ± 1.66 |
| COc1ccc(C(=O)c2cn([C@@H]3C[C@H](C)CC[C@H]3C(C)C)nn2)c(OC)c1 [TZM-14, (2,4-dimethoxyphenyl) (1-((1R,2S,5R)-2-isopropyl-5-methylcyclohexyl)-1H-1,2,3-triazole-4-yl)methanone] | 43.8 ± 4.22 |
| CC(C)[C@@H]1CC[C@@H](C)C[C@H]1n1cc(C(=O)c2cccc(F)c2)nn1 [TZM-12, (3-fluorophenyl) (1-((1R,2S,5R)-2-isopropyl-5-methylcyclohexyl)-1H-1,2,3-triazole-4-yl)methanone] | 57.9 ± 8.57 |
| COc1cccc(C(=O)c2cn([C@@H]3C[C@H](C)CC[C@H]3C(C)C)nn2)c1 [TZM-19, (1-((1R,2S,5R)-2-isopropyl-5-methylcyclohexyl)-1H-1,2,3-triazole-4-yl) (3-methoxyphenyl)methanone] | 40.8 ± 9.01 |

Same assay, conditions: CHO cells stably expressing TRPM8; concentrations 0.1, 1, 10 and 100 μM; sigmoid fit

| EC50 [µM] | SMILES |
| --- | --- |
| 3.84 ± 2.36 | CC(C)[C@@H]1CC[C@@H](C)C[C@H]1n1cc(CCc2ccccc2)nn1 [TZM-10, 1-((1R,2S,5R)-2-isopropyl-5-methylcyclohexyl)-4-phenethyl-1H-1,2,3-triazole] |
| 3.47 ± 1.34 | COc1ccc(-c2cn([C@@H]3C[C@H](C)CC[C@H]3C(C)C)nn2)cc1 [TZM-4, 1-((1R,2S,5R)-2-isopropyl-5-methylcyclohexyl)-4-(4-methoxyphenyl)-1H-1,2,3-triazole] |
| 6.23 ± 3.18 | CC(C)[C@@H]1CC[C@@H](C)C[C@H]1n1cc(-c2ccccn2)nn1 [TZM-9, 2-(1-((1R,2S,5R)-2-isopropyl-5-methylcyclohexyl)-1H-1,2,3-triazole-4-yl)pyridine] |

| SMILES | EC50 [µM] |
| --- | --- |
| COc1ccc(C(=O)c2cn([C@@H]3C[C@H](C)CC[C@H]3C(C)C)nn2)cc1OC [TZM-11, (3,4-dimethoxyphenyl) (1-((1R,2S,5R)-2-isopropyl-5-methylcyclohexyl)-1H-1,2,3-triazole-4-yl)methanone] | 9.84 ± 3.29 |
